Consider 19 molecules from patent US11292767B2, “Heterocyclic inhibitors of MCT4” (Vettore, LLC, priority 2016, dated 2022).

The target in one series is MCT1 (Homo sapiens (Human), UniProt P53985). The series is described as follows: Assay 4: MCT1-mediated lactate transport in BT20 breast cancer cells. It counts as cell-based. Conditions: lactate transport (Table 27). On the procedure: Preparing BCECF-Loaded Cells
10 µL of a 30 mM DMSO stock of BCECF-AM ester (Life Technologies) is added and the cells are incubated at 37° C. for 5 min. The cells are pelleted (300 g, 5 min), washed once with 1 mL Tyrode's Solution, pH 7.4, re-pelleted (300 g, 5 min), and resuspended in 1 mL Tyrode's Solution, pH 7.4.
Assay 4: MCT1-Mediated Lactate Transport in BT20 Breast Cancer Cells.
Preparation of BCECF loaded cells are as described for Assay 1. Lactate transport assay is as described for Assay 1, except 10 mM L-lactate (rather than 50 mM) is added.

A short description of series [1]: Metabolic stability in mouse liver microsomes (in vitro t1/2). It counts as in vitro ADME. Conditions: mouse liver microsomes 0.5 mg/mL, 2 μM compound; for Mouse microsome % 60 min: % remaining at 60 min. On the procedure: (§1) Metabolic Stability Assays The following are assays that may be used to evaluate the metabolic stability of compounds of Formula (I) in human, rat, or mouse microsomes. The assays follow a common procedure recited below. 1. […] Two separated experiments were performed as follows. a) With NADPH: 10 μL of 20 mg/mL liver microsomes and 40 μL of 10 mM NADPH were added to the incubations. […] The final concentration of microsomes was 0.5 mg/mL. 3. The reaction was started with the addition of 4 μL of 200 μM control compound or test compound solutions. Verapamil was used as positive control in this study. The final concentration of test compound or control compound was 2 μM. 4. Aliquots of 50 μL were taken from the reaction solution at 0, 15, 30, 45 and 60 min. […] Samples were centrifuged at 3,220 g for 40 minutes. A 90 μL aliquot of the supernatant was mixed with 90 μL of ultra-pure H2O and then used for LC-MS/MS analysis. 5. Data analysis. All calculations were carried out using Microsoft Excel. Peak areas were determined from extracted ion chromatograms. The slope value, k, was determined by linear regression of the natural logarithm of the remaining percentage of the parent drug vs. incubation time curve. The in vitro half-life (in vitro t1/2) was determined from the slope value: in vitro t1/2=−(0.693)/k.

Series [2] is described as follows: Metabolic stability in human liver microsomes (in vitro t1/2). The following applies: human liver microsomes 0.5 mg/mL, 2 μM compound, % remaining at 60 min. It counts as in vitro ADME. On the procedure:
as §1
A general note: Liver microsomes are vesicles of endoplasmic reticulum, rich in cytochrome P450 enzymes.

Series [3] in a line: Pharmacokinetic assay in mouse (IV 3 mg/kg, PO 10 mg/kg). The format is in vivo. Conditions: male, CD1, mouse, plasma, read-out: Mouse F (%). The text has this: (§2) Pharmacokinetic Assays in Mouse and Rat
(§3) The following are assays that may be used to evaluate the pharmacokinetic properties of Formula (I) in mouse or rat. The assays follow a common procedure recited below.
(§4) 1. […] For PO (oral gavage), DMSO/PEG400 (10:90). Formulations freshly prepared on the day of dosing or prior to dosing. Storage at room temperature.
(§5) 2. Test Species: For Mouse: Male CD1 strain, approximately 6-8 weeks in age, approximately 20-30 g. For Rat: Male Sprague-Dawley strain, approximately 6-8 weeks in age, approximately 200-300 g.
(§6) 3. Dose Level: For IV, 3 mg/kg. For PO, 10 mg/kg.
(§7) 4. Number of animals: 3 per assay.
(§8) 5. PK time points: For IV (plasma): 5 min, 15 min, 1, 2, 4, 6, 8, 24 h post dose. For PO (plasma): 15 min, 30 min, 1, 2, 4, 6, 8, 24 h post dose.
(§9) 6. Blood Sample Collection and Processing. Blood was collected (˜0.2 mL per time point) from jugular vein. Blood of each sample was transferred into plastic micro centrifuge tubes containing anticoagulant of EDTA-K2. Blood samples were centrifuged at 2,000 g for 5 minutes at 4° C. to obtain plasma.
(§10) 7. Samples Analysis: Plasma samples were analyzed using LC/MS/MS method, and pharmacokinetic parameters (half-life: t1/2; oral bioavailability: F; volume of distribution: Vss).

The nature of series [4]: Metabolic stability in rat liver microsomes (in vitro t1/2). It counts as in vitro ADME. Conditions: rat liver microsomes 0.5 mg/mL, 2 μM compound; for Rat microsome % 60 min: % remaining at 60 min. On the procedure:
as §1

Series [5] can be described thus: Pharmacokinetic assay in rat (IV 3 mg/kg, PO 10 mg/kg). It counts as in vivo. The following applies: male, Sprague-Dawley, plasma, read-out: Rat F (%).
Description: as §2, §3, §4, §5, §6, §7, §8, §9, §10

The test system of series [6] is CFA-induced arthritis. Description: Adjuvant-induced arthritis model in rat: Difference of Weight Bearing test (DWB). The following applies: SD rat, PO 3 days post CFA, compared to dexamethasone. It counts as in vivo.
Series [7] concerns CFA-induced arthritis. The series is described as follows: Adjuvant-induced arthritis model in rat: Mechanical Allodynia test (MA). The following applies: SD rat, PO 3 days post CFA, compared to dexamethasone. It counts as in vivo.

Bounds are passed on as bounds.

Chain of MCT1 (P53985 whole entry): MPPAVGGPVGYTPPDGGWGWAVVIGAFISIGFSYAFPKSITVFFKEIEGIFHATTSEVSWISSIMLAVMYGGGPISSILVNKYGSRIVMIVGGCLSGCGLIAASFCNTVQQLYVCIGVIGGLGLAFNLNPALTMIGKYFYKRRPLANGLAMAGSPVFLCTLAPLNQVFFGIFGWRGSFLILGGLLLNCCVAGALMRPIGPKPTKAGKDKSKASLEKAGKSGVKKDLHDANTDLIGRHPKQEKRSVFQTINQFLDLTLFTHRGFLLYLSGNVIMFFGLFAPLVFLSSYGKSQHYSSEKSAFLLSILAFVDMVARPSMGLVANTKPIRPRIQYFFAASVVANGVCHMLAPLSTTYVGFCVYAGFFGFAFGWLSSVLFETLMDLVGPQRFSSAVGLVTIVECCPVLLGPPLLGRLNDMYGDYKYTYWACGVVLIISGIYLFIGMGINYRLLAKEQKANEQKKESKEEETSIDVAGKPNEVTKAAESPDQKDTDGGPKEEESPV
Chain of MCT1 (P35613 140-385 partner): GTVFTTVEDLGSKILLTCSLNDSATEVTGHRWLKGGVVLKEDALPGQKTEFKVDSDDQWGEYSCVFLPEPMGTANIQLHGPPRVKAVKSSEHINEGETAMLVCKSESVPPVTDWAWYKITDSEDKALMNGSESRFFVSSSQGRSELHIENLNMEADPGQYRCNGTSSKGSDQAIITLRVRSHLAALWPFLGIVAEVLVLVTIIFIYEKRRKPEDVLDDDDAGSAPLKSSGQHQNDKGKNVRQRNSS

`CC(C)(OCc1cc(-c2ccsc2)n(Cc2ccccc2Cl)n1)C(=O)O` [Example 24, 2-([1-[(2-Chlorophenyl)methyl]-5-(thien-3-yl)1H-pyrazol-3-yl]methoxy)-2-methylpropanoic acid] displayed an IC50 on MCT1 greater than 100000 nM.
`CC(C)(OCc1cc(-c2cccc(OC(F)(F)F)c2)n(Cc2ccccc2Cl)n1)C(=O)O` [Example 34, 2-([1-[(2-Chlorophenyl)methyl]-5-[3-(trifluoromethoxy)phenyl]1H-pyrazol-3-yl]methoxy)-2-methylpropanoic acid] came in with an IC50 at MCT1 greater than 11000 nM.
At MCT1, `CC(C)(OCc1cc(-c2cccc(CN3CCOCC3)c2)n(Cc2ccccc2Cl)n1)C(=O)O` [Example 40, 2-([1-[(2-Chlorophenyl)methyl]-5-[3-(morpholinomethyl)phenyl]1H-pyrazol-3-yl]methoxy)-2-methylpropanoic acid] returned an IC50 greater than 100000 nM.
Molecule `CC(C)(OCc1cc(-c2cccc(OCC(F)(F)F)c2)n(Cc2ccccc2Cl)n1)C(=O)O` [Example 43, 2-([1-[(2-Chlorophenyl)methyl]-5-[3-(2,2,2-trifluoroethoxy)phenyl]1H-pyrazol-3-yl]methoxy)-2-methylpropanoic acid] yielded an IC50 against MCT1 greater than 33000 nM.
The molecule `CC(C)(OCc1cc(-c2cscn2)n(Cc2ccccc2Cl)n1)C(=O)O` [Example 47, 2-([1-[(2-Chlorophenyl)methyl]-5-(1,3-thiazol-4-yl)-1H-pyrazol-3-yl]methoxy)-2-methylpropionic acid] yielded an IC50 against MCT1 greater than 100000 nM.
With `COc1cccc(-c2cc(COC(C)(C)C(=O)O)nn2Cc2ccccc2)c1` [Example 53, 2-([1-benzyl-5-(3-methoxyphenyl)-1H-pyrazol-3-yl]methoxy)-2-methyl-propanoic acid], on MCT1, the IC50 was greater than 100000 nM.
Regarding `COc1cccc(-c2cc(COC(C)(C)C(=O)O)nn2-c2ccccc2Cl)c1` [Example 57, 2-([1-(2-chlorophenyl)-5-(3-methoxyphenyl)-1H-pyrazol-3-yl]methoxy)-2-methylpropanoic acid], at MCT1, the IC50 was greater than 133000 nM. Further, in series [1], the “Mouse microsome % 60 min” value was 100%. In addition, the “Human microsome % 60 min” value in series [2] is reported as 80%.
With `CC(C)C(=O)Nc1cccc(-c2cc(COC(C)(C)C(=O)O)nn2Cc2ccccc2Cl)c1` [Example 69, 2-([1-[(2-Chlorophenyl)methyl]-5-[3-(2-methylpropanamido)phenyl]-1H-pyrazol-3-yl]methoxy)-2-methylpropanoic acid], the IC50 against MCT1 was greater than 100000 nM.
On MCT1, `CC(C)(OCc1cc(-c2cccc(S(C)(=O)=O)c2)n(Cc2ccccc2Cl)n1)C(=O)O` [Example 70, 2-([1-[(2-Chlorophenyl)methyl]-5-(3-methanesulfonylphenyl)-1H-pyrazol-3-yl]methoxy)-2-methylpropanoic acid] gave an IC50 greater than 100000 nM.
At MCT1, `CC(C)CNc1cccc(-c2cc(COC(C)(C)C(=O)O)nn2Cc2ccccc2Cl)c1` [Example 73, 2-([1-[(2-chlorophenyl)methyl]-5-[3-[(2-methylpropyl)amino]phenyl]-1H-pyrazol-3-yl]methoxy)-2-methyl-propanoic acid] displayed an IC50 greater than 11000 nM.
Turning to `CC(C)NC(=O)c1cccc(-c2cc(COC(C)(C)C(=O)O)nn2Cc2ccccc2Cl)c1` [Example 74, 2-([1-[(2-Chlorophenyl)methyl]-5-[3-[(propan-2-yl)carbamoyl]phenyl]-1H-pyrazol-3-yl]methoxy)-2-methyl-propanoic acid], at MCT1, the IC50 is greater than 100000 nM.
On the same count and under the same terms, the same measure for `CC(C)(OCc1cc(Nc2ccccc2)n(Cc2ccccc2Cl)n1)C(=O)O` [Example 75, 2-([1-[(2-chlorophenyl)methyl]-5-(phenylamino)-1H-pyrazol-3-yl]methoxy)-2-methylpropanoic Acid]: greater than 100000 nM.
On to `Cn1ncc2cccc(-n3nc(COC(C)(C)C(=O)O)cc3-c3cccc(OCC(C)(C)C)c3)c21` [Example 167, 2-([5-[3-(2,2-dimethylpropoxy)phenyl]-1-(1-methyl-1H-indazol-7-yl)-1H-pyrazol-3-yl]methoxy)-2-methyl-propanoic acid], for which the results for the bioavailability in series [3] and in series [5] were 24% and 72%, respectively. In addition, the “Mouse microsome % 60 min” value in series [1] worked out at 97%. Besides, the “Human microsome % 60 min” value in series [2] is on record as 84%. The “Rat microsome % 60 min” value in series [4] is recorded as 72%.
`CCOc1ccccc1Cn1nc(COC(C)(C)C(=O)O)cc1-c1cc(OC)cc(OC)c1` [Example 211, 2-([5-(3,5-Dimethoxyphenyl)-1-[(2-ethoxyphenyl)methyl]-1H-pyrazol-3-yl]-methoxy)-2-methylpropanoic acid]: the bioavailability in series [3] was found to be 57%; in series [5] it was 55%. Besides, the “Mouse microsome % 60 min” value in series [1] came out at 43%. Moreover, in series [2], the “Human microsome % 60 min” value is given as 78%. The “Rat microsome % 60 min” value in series [4] came out at 57%.
Take `COc1cc(OC)cc(-c2cc(COC(C)(C)C(=O)O)nn2Cc2ccccc2Cl)c1` [Example 224, 2-([1-[(2-Chlorophenyl)methyl]-5-(3,5-dimethoxyphenyl)-1H-pyrazol-3-yl]-methoxy)-2-methylpropanoic acid]: the “Difference in Weight Bearing, Minimal Efficacious Dose” value in the series on CFA-induced arthritis [6] was no more than 10 mg/kg. Moreover, the “Mechanical Allodynia (Von Frey), Minimal Efficacious Dose” value in the series on CFA-induced arthritis [7] is given as no more than 10 mg/kg. The “Mouse microsome % 60 min” value in series [1] is listed as 98%. Moreover, the “Human microsome % 60 min” value in series [2] is given as 91%. The “Rat microsome % 60 min” value in series [4] was 73%. Also, in series [5], the bioavailability came out at 53%.
`CCn1ncc2ccc(-c3cc(COC(C)(C)C(=O)O)nn3-c3ccccc3N3CCC3)cc21` [Example 228, 2-([1-[2-(Azetidin-1-yl)phenyl]-5-(1-ethyl-1H-indazol-6-yl)-1H-pyrazol-3-yl]methoxy)-2-methylpropanoic acid]: the bioavailability in series [3] was 100%; in series [5], 94%. In addition, the “Mouse microsome % 60 min” value in series [1] amounted to 96%. In addition, the “Human microsome % 60 min” value in series [2] amounted to 71%. In series [4], the “Rat microsome % 60 min” value worked out at 91%.
As to `CCn1ncc2ccc(-c3cc(CO[C@@](C)(CC)C(=O)O)nn3Cc3ccccc3Cl)cc21` [Example 257, (S)-2-((1-(2-chlorobenzyl)-5-(1-ethyl-1H-indazol-6-yl)-1H-pyrazol-3-yl)methoxy)-2-methylbutanoic acid], the bioavailability in series [3] and in series [5] was 76% in each case. In addition, the “Mouse microsome t1/2, min” value in series [1] (in vitro t1/2) is “∞”. In addition, the “Human microsome % 60 min” value in series [2] is 96%. Also, the “Rat microsome t1/2, min” value in series [4] (in vitro t1/2) is given as “∞”.
With `CC(C)(OCc1cc(-c2cccc(OC3CCC3)c2)n(-c2ccccc2N2CCC2)n1)C(=O)O` [Example 260, 2-([1-[2-(Azetidin-1-yl)phenyl]-5-(3-cyclobutoxyphenyl)-1H-pyrazol-3-yl]methoxy)-2-methylpropanoic acid], the “Difference in Weight Bearing, Minimal Efficacious Dose” value in the series with CFA-induced arthritis [6] amounted to 1 mg/kg. For the same molecule, the values for the bioavailability in series [3] and in series [5] were 86% and 85%, respectively. The “Mechanical Allodynia (Von Frey), Minimal Efficacious Dose” value in the series on CFA-induced arthritis [7] turned out to be 1 mg/kg.
Consider `CCn1ncc2ccc(-c3cc(CO[C@](C)(CC)C(=O)O)nn3-c3ccccc3N3CCC3)cc21` [Example 269, (2R)-2-([1-[2-(Azetidin-1-yl)phenyl]-5-(1-ethyl-1H-indazol-6-yl)-1H-pyrazol-3-yl]methoxy)-2-methylbutanoic acid], for which, in series [3], the bioavailability worked out at 100%.

In general, IC50 refers to the midpoint of a concentration-inhibition curve.
